Source: patent US9156826B2, “Asymmetrical reversible neuromuscular blocking agents of ultra-short, short, or intermediate duration” (Cornell University, priority 2012, dated 2015)
Where two headings read alike, the source gives them in different places.

Tests used:
[1] = test system: twitch responses of the extensor digitorum of the foot (peroneal nerve stimulation); assay: Spontaneous recovery versus reversal of neuromuscular blockade by cysteine in monkeys; assay type: in vivo, rhesus monkey (Macaca mulatta); settings: Table 1; reversal of the blockade by cysteine
Protocol: (§1) Selected NMBA compounds were tested as described in PCT/US2010/000796 application by an inventor herein, published as WO2010/107488, which is incorporated by reference, see pages 66-78. Dose-response curves for twitch blockade by test compounds were generated as described. […] Successive doses were separated by at least three estimated half lives beyond complete recovery of the previous dose to TOF of 110-120%, which is normal for these monkeys. Only the first one or two doses yielding 5 to 99% blockade were included from any single experiment for computation of dose-response data. Comparative studies of spontaneous recovery versus antagonism/reversal were done at least 3 estimated half-lives following dose-response studies. ED50 and ED95 were computed from the regression of log dose vs. the logit of percentage blockade of twitch.
(§2) On the day of each study, monkeys received ketamine (7-10 mg/kg i.m.) followed by tracheal intubation under topical anesthesia with 4% lidocaine. Ventilation was controlled at 10 mL/kg and 20 breaths/min with isoflurane (1.0-2.0%) and N2O/O2 (2:1 mixture). Ringers lactate was administered at ˜10 ml kg^−1 h^−1. Arterial pressure was monitored from a femoral, superficial tibial, or radial (22 gauge) cannula. Heart rate was measured by tachograph from the arterial pulse wave. Core temperature was kept at 36.5-38.0° C. by warming blankets. Electrocardiogram and pulse oximetry were monitored continuously.
(§3) Needle electrodes (25 gauge) transmitting square-wave pulses of 0.2 msec duration at supramaximal voltage which were generated by a Grass S-88 stimulator (Grass Instruments, Quincy, Mass.) were placed at the peroneal nerve at the knee to elicit twitch responses of the extensor digitorum of the foot at 0.15 Hz. A small slip (10-20%) of the tendon was dissected free under sterile technique and tied to a Grass FT 10 force transducer (Grass Instruments, Quincy, Mass.) at a baseline tension of 50 gm. Train-of four stimulation (TOF, 2 Hz for 2 sec) was interposed at appropriate points, especially 1-2 min prior to NMBA dosing and following recovery of twitch to 95% of baseline, where TOF was subsequently evaluated every 1-2 min.
Comparative studies of spontaneous recovery versus antagonism/reversal were done at least 3 estimated half-lives following dose-response studies.

[2] = test system: twitch responses of the extensor digitorum of the foot (peroneal nerve stimulation); assay: Neuromuscular blocking potency and duration: twitch blockade dose-response in anesthetized rhesus monkeys; assay type: in vivo, rhesus monkey (Macaca mulatta); settings: for ED95: Macaca mulatta; for Duration (min ± SD): at the actual dose administered, injection to recovery of twitch to 95% of control
Protocol: as §1
Experiments were approved by the Institutional Animal Care and Use Committee of Weill Medical College of Cornell University (New York, N.Y.) and of Albany Medical College (Albany, N.Y.), where the studies were conducted. A colony of 10 adult male monkeys (Macaca mulatta) weighing 8-18 kg was studied at ˜6 week intervals. Animals were housed and cared for in accordance with the Guide for Care and Use of Laboratory Animals (National Research Council, Washington, D.C.). They were fed a standard Old World monkey diet, enriched with fruits and vegetables, and other dietary novelties and were followed throughout the study to verify normal health by physical examination, body weight, and clinical laboratory studies (Complete Blood Count, Blood Urea Nitrogen and creatinine, and liver function tests).
as §2, §3
Recordings of circulatory and neuromuscular data were made on a Grass 7B polygraph (Grass Instruments). A baseline period of 15-20 min was allowed for stabilization of recordings prior to dosing.^2
Dose-response curves for twitch blockade by gantacurium, CW 002, CW 011, cisatracurium, CW002-Cys, NB 938-69, NB 1064-81, NB 802-17 (CW 001), NB 832-65, and NB 1163-79, structures of which are all shown above, were generated as follows. […] Successive doses were separated by at least three estimated half lives beyond complete recovery of the previous dose to TOF of 110-120%, which is normal for these monkeys. Only the first one or two doses yielding 5 to 99% blockade were included from any single experiment for computation of dose-response data.
ED 50 and ED 95 were computed from the regression of log dose vs. the logit of percentage blockade of twitch.

[3] = Table 1, calculated dose for 95% block of twitch, monkeys, read-out: ED 95

SMILES	Reversibility (Cysteine) [1]	ED95 [2, 3]	Duration (min ± SD) ([2]; Table 1)	ED95 [2]
COc1cc2c(cc1OC)[C@@H](Cc1cc(OC)c(OC)c(OC)c1)[N@+](C)(CCCOC(=O)/C(Cl)=C/C(=O)OCCC[N+]1(Cc3cc(OC)c(OC)c(OC)c3)CCCC1)CC2 [Compound 1326-69]	Yes	0.11 mg/kg	4.5 ± 1.8 min	–
COc1cc2c(cc1OC)[C@@H](Cc1cc(OC)c(OC)c(OC)c1)[N@+](C)(CCCOC(=O)/C(Cl)=C/C(=O)OCCC[N+]1(Cc3cc(OC)c(OC)c(OC)c3)CCCCC1)CC2 [Compound 1343-05]	Yes	–	6.7 ± 2.1 min	0.07 mg/kg
COc1ccc(C[C@@H]2c3cc(OC)c(OC)cc3CC[N@@+]2(C)CCCOC(=O)/C=C\C(=O)OCCC[N+]2(Cc3cc(OC)c(OC)c(OC)c3)CCCC2)cc1OC [Compound 1343-13]	Yes	–	8.8 ± 2.6 min	0.06 mg/kg
COc1ccc(C[C@@H]2c3cc(OC)c(OC)cc3CC[N@@+]2(C)CCCOC(=O)/C=C\C(=O)OCCC[N+]2(Cc3ccc(OC)c(OC)c3)CCCC2)cc1OC [Compound 1390-80]	Yes	0.07 mg/kg	9.0 ± 2.1 min	–
COc1ccc(C[C@@H]2c3cc(OC)c(OC)cc3CC[N@@+]2(C)CCCOC(=O)/C=C\C(=O)OCCC[N+]2(Cc3ccc(OC)c(OC)c3OC)CCCC2)cc1OC [Compound 1449-35]	Yes	–	5 min	0.126 mg/kg
COc1ccc(C[N+]2(CCCOC(=O)/C=C\C(=O)OCCC[N@+]3(C)CCc4cc(OC)c(OC)cc4[C@H]3Cc3ccc(OC)c(OC)c3)CCCC2)cc1 [Compound 1521-28]	Yes	–	6.5 min	0.335 mg/kg
COc1ccc(C[C@@H]2c3cc(OC)c(OC)cc3CC[N@@+]2(C)CCCOC(=O)/C(Cl)=C/C(=O)OCCC[N+]2(Cc3ccc(OC)c(OC)c3)CCOCC2)cc1OC [Compound 1521-74]	Yes	–	4.3 ± 1.1 min	0.16 mg/kg
COc1ccc(C[C@@H]2c3cc(OC)c(OC)cc3CC[N@@+]2(C)CCCOC(=O)/C=C\C(=O)OCCC[N+]2(Cc3ccc4c(c3)OCCO4)CCOCC2)cc1OC [Compound 1521-78]	Yes	–	12.1 ± 2.1 min	0.05 mg/kg
